Here are results for 1 compound from EPA's ToxValDB 9.5 (doi:10.2903/j.efsa.2010.1771).

The test system of one data set is Tagia sp. The settings on record: acute; mortality.
In a further data set the test system is Canidae. The settings on record: oral, Dog Other, hematological.
Another data set deals with Daphnia magna. As to conditions: chronic/long-term; duration: 21 days; reproduction.
In another data set the test system is Anas platyrhynchos. As to conditions: short-term; oral; feed; mortality.
The subject of another data set is Typhlodromus pyri. The settings on record: not reported; mortality.
The subject of another data set is Apis mellifera. As to conditions: acute; duration: 48 hours; oral; unspecified; mortality.

Converted amounts (≈) assume the structure as drawn.

`CCSC(C)CC1CC(=O)C(C(CC)=NOC/C=C/Cl)=C(O)C1` (stereo not drawn) [Clethodim]: the LC50 in the data set on Oncorhynchus mykiss (acute, duration: 96 hours, mortality) was 25 µg/mL (≈ 69.5 µM); in the data set on Tagia sp., 129 mg/kg; with Anas platyrhynchos, more than 851 mg/kg-day. Moreover, the NOEC in the data set on Oncorhynchus mykiss (chronic/long-term, duration: 21 days) was determined as 3.9 mg/L; with Daphnia magna, 49 mg/L. The NOAEL in the data set with Canidae (chronic, duration: 1 years) turned out to be 21 mg/kg-day; with Canidae (subchronic, duration: 90 days), 21 mg/kg-day; with Rattus norvegicus (chronic, duration: 2 years, organ weight), 16 mg/kg-day. The compound also registered an LEL in the data set with Typhlodromus pyri of 9.6 g/ha. Further, the LD50 with Apis mellifera was more than 43 µg/piece; in the data set with Colinus virginianus (acute, oral, mortality), more than 1640 mg/kg; with Rattus norvegicus (acute, oral, mortality), 1130 mg/kg. In addition, the NOEL in the data set on Colinus virginianus (reproduction developmental, reproduction) was determined as 17 mg/kg-day.
